Assay results reported in patent US10745401B2, “Condensed lactam derivative” (Sumitomo Dainippon Pharma Co., Ltd., priority 2018, dated 2020).
pEC50, pIC50, pKi: −log10 of the molar value.

Legend:
[1] = Test 4: metabolic stability test in human hepatic microsome; format: in vitro ADME; details: 0.1 mg/mL microsome, 0.1 μmol/L compound, 37° C., 30 minutes
Protocol: Test 4: Metabolic Stability Test in Human Hepatic Microsome
The stability of the present compound in human hepatic microsome metabolism was evaluated as mentioned below. Human hepatic microsome was obtained from Xenontech. Human hepatic microsome, NADPH, and each test compound were mixed in 25 mmol/L phosphate buffer solution (pH 7.4) to reach the following concentrations as shown below, and the mixture was incubated at 37° C. for 30 minutes. • Human hepatic microsome: 0.1 mg/mL • NAPDH: 3.2 mmol/L • Test compound: 0.1 μmol/L
The residual ratio of the test compound in each sample after 30 minutes was measured by LC-MS, and the metabolic stability in human hepatic microsome was calculated from the following formula. Metabolic stability in human hepatic microsome (mL/min/mg protein)=−LN (residual ratio)/30/0.1

hERG channel = hERG channel (Homo sapiens (Human), UniProt Q12809); test: Test 6-1: inhibitory activity for hERG channel (auto patch clamp, Qpatch); format: cell-based; details: whole cell auto patch clamp, hERG-CHO cells; read-out: hERG inhibition IC50
Protocol: Test 6-1: Evaluation of Inhibitory Activity for hERG Channel
Inhibitory activity of the present compound for hERG channel was measured by whole cell patch clamp method with an auto patch clamp system using CHO cells in which hERG channel involved in human rapidly activating delayed rectifier potassium current (IKr) was forcibly expressed.
hERG-CHO cells purchased from ChanTest Cop. were cultured in a CO2 incubator at 37° C., and dissociated from a flask with trypsin shortly before the measurement of hERG current, to prepare a cell suspension.
Extracellular fluid: 2 mmol/L CaCl2, 1 mmol/L MgCl2, 10 mmol/L HEPES, 4 mmol/L KCl, 145 mmol/L NaCl, 10 mmol/L Glucose
Intracellular fluid: 5.4 mmol/L CaCl2, 1.8 mmol/L MgCl2, 10 mmol/L HEPES, 31 mmol/L KOH, 10 mmol/L EGTA, 120 mmol/L KCl, 4 mmol/L Na2-ATP
Test compound solution: Test compound was dissolved in DMSO to reach the concentration of 2 mmol/L or 20 mmol/L, in order to prepare a test compound solution. […] (Measurement of Current Value and Data Analysis)
The cell suspension, the extracellular fluid, the intracellular fluid, and the measurement plate were set in the auto patch clamp system, and hERG current was measured by whole cell patch clamp method. […] Each pulse interval was 15 seconds. The data analysis was carried out with Qpatch Assay Software (Biolin Scientific). The test was carried out by applying incrementally 4 concentrations of each test compound, and the average of the maximum peak tail currents which were obtained from the last 3 stimulations in each concentration was determined as the evaluated data. Based on the current inhibition rate for a pre-applied current at each concentration of each test compound, IC50 value was calculated by Hill equation with the software.

human D2 receptor = human D2 receptor (Homo sapiens (Human), UniProt P14416); test: Test 1: binding activity for human D2 receptor ([3H]Spiperone, CHO cell membrane fraction); details: human D2 receptor, [3H]Spiperone
Protocol: (§1) Test 1: Evaluation of Binding Activity for Human 5-HT1A Receptor, Human 5-HT2A Receptor, and Human D2 Receptor
(§2) Binding affinity of the present compound for human 5-HT1A receptor, human 5-HT2A receptor, and human D2 receptor was measured by the following procedures.
(§3) Each mixture was incubated at room temperature for 60 minutes. Then, the mixture was added quickly on a glassfiber filter plate (Multiscreen FB, Millipore, Inc.) coated with 0.3% aqueous polyethylenimine, and vacuum-filtered. Radioactivity remaining on the filter was measured with a liquid scintillation counter (PerkinElmer, Inc.). Binding inhibition rate was calculated from the following formula.
(§4) Ki of each compound was calculated from the following formula. Binding inhibition constant (Ki)=IC50/(1+S/Kd) wherein S is concentration of ligand; Kd is a binding dissociation constant of ligand to membrane, which is calculated from a saturated binding experiment conducted with the same cell membrane. A small Ki value means strong binding ability to a receptor.

human 5-HT1A receptor [2] = molecular target: T1, human 5-HT1A receptor (Homo sapiens (Human), UniProt P08908); test: Test 2: agonist activity for human 5-HT1A receptor ([35S]GTPγS binding); format: biochemical; details: for pEC50: [35S]GTPγS binding, concentration at which half the activity of Emax was obtained; for Emax at 10 µM: agonist activity in the presence of 10 μM of compound, relative to 100 μmol/L 5-HT
Protocol: Test 2: Evaluation of Agonist Activity for Human 5-HT1A Receptor
CHO cell membrane fraction in which human 5-HT1A receptor was expressed as used in Test 1 was purchased. To a buffer containing guanosine diphosphate were added a test compound dissolved in DMSO, each receptor membrane sample diluted with buffer, and [^35S] Guanosine 5′-O-[gamma-thio]triphosphate (GTPγS). The mixture was incubated at room temperature for 60 minutes. Then, the mixture was added quickly on a glassfiber filter plate (Multiscreen FB, Millipore, Inc.), and vacuum-filtered. Radioactivity remaining on the […] was measured with a liquid scintillation counter. Agonist activity was calculated from the following formula.

human 5-HT1A receptor [3] = molecular target: T1, human 5-HT1A receptor; test: Test 1: binding activity for human 5-HT1A receptor ([3H]8-OH-DPAT, CHO cell membrane fraction)
Protocol: as §1, §2, §3
as §4, with “IC50 value was calculated by Hill analysis (Physiology, 1910, 40, 190-200). Ki of” for “Ki of”

Chain of human D2 receptor (P14416 whole entry): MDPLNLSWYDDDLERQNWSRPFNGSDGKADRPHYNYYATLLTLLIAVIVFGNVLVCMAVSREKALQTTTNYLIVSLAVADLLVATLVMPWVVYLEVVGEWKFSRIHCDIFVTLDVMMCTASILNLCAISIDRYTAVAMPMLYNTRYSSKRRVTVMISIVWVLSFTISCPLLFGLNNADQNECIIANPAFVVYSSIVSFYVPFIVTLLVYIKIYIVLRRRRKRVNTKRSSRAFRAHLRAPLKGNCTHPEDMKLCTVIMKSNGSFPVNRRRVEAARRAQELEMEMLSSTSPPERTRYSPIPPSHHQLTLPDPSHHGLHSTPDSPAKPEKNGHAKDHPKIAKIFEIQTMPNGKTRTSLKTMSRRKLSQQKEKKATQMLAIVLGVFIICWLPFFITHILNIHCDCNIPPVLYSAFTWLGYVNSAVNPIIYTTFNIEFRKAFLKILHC
Chain of hERG channel (Q12809 whole entry): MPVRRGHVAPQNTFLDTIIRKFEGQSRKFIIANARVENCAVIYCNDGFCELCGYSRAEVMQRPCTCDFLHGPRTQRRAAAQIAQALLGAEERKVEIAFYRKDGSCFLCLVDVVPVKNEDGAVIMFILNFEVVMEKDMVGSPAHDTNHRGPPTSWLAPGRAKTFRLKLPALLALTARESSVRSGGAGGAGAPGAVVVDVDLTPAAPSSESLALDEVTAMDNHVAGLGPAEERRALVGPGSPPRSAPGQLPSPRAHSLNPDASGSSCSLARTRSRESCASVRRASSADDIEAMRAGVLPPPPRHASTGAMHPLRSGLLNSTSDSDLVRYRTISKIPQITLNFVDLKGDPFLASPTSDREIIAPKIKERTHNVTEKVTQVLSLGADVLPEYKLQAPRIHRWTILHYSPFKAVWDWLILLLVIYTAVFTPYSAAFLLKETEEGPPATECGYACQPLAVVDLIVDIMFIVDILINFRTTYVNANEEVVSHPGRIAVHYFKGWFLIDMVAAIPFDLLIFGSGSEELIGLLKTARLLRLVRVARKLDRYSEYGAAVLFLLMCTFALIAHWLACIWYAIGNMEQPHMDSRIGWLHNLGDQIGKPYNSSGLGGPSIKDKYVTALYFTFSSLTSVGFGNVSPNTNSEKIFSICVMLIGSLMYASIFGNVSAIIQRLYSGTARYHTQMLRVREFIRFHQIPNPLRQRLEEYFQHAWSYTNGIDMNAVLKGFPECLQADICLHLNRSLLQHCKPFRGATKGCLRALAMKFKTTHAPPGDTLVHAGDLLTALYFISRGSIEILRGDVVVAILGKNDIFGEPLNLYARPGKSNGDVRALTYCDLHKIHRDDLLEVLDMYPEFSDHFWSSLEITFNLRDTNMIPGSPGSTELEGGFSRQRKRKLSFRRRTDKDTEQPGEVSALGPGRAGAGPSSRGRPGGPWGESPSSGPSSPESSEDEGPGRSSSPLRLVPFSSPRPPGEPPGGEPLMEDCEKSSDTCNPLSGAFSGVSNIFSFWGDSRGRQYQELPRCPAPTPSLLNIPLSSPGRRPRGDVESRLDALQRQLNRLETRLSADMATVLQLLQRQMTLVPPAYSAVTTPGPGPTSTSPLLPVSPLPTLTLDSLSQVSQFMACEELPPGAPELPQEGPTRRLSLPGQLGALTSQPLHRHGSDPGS
T1 sequence (P08908 whole entry): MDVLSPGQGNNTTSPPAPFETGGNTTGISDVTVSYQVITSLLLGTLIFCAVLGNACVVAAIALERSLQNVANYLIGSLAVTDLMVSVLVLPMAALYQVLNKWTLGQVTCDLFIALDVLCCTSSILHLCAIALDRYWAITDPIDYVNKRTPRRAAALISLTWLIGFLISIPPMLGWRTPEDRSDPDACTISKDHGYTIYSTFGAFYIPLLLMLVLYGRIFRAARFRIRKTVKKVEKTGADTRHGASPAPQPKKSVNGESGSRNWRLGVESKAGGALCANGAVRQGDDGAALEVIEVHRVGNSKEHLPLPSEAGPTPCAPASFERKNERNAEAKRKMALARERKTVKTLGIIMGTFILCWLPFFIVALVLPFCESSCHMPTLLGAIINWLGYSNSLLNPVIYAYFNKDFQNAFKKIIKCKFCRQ

| Compound | Metabolic stability in human hepatic microsome [1] | pKi (human D2 receptor) | pEC50 (human 5-HT1A receptor [2]) | Emax at 10 µM (human 5-HT1A receptor [2]) | pKi (human 5-HT1A receptor [3]) | pIC50 (hERG channel) |
| --- | --- | --- | --- | --- | --- | --- |
| O=C1c2ncccc2CCN1CCN1CCC(c2noc3ccc(F)cc23)CC1 [Example 5] | <0.01 mL/min/mg protein | 5.11 | 7.04 | 60% | 8.24 | 5.62 |
| O=c1c2cnccc2ccn1CCN1CCN(c2nsc3ccccc23)CC1 [Example 11] | 0.245 mL/min/mg protein | 6.50 | – | – | 8.53 | 5.59 |
| O=c1c2ncccc2ccn1CCN1CCC(c2noc3cc(F)ccc23)CC1 [Example 12] | 0.02 mL/min/mg protein | 6.51 | 7.02 | 32% | 8.15 | 6.52 |
| COc1cc2c(cn1)C(=O)N(CCN1CCC(c3noc4ccccc34)CC1)CC2 [Example 14] | <0.01 mL/min/mg protein | 6.87 | 8.54 | 42% | 9.82 | 6.10 |
| CC1CN(CCN2CCC(c3noc4ccccc34)CC2)C(=O)c2ncccc21 (centres unmarked) [Example 15] | 0.055 mL/min/mg protein | 5.81 | 8.14 | 57% | 9.29 | 5.80 |
| Cn1cnc2c1CCN(CCN1CCC(c3noc4ccccc34)CC1)C2=O [Example 16] | <0.01 mL/min/mg protein | 4.47 | 6.52 | 40% | 7.73 | < 5.00 |
| COc1cc2c(cn1)C(=O)N(CCN1CCN(c3noc4ccccc34)CC1)CC2 [Example 20] | 0.091 mL/min/mg protein | 5.72 | 8.33 | 52% | 9.11 | 5.27 |
| Cc1cc2c(cn1)C(=O)N(CCN1CCN(c3noc4ccccc34)CC1)CC21CC1 [Example 21] | 0.323 mL/min/mg protein | 5.67 | 7.74 | 59% | 8.06 | 5.10 |
| Cc1noc2c1C(=O)N(CCN1CCC(c3noc4ccccc34)CC1)CC2 [Example 33] | 0.074 mL/min/mg protein | 6.00 | 6.33 | 49% | 8.03 | 6.22 |
| Cn1cc2c(n1)CCCN(CCN1CCC(c3noc4ccccc34)CC1)C2=O [Example 41] | <0.01 mL/min/mg protein | 6.88 | 7.10 | 45% | 7.96 | 6.30 |
| CC(C)c1nc2c(o1)C(=O)N(CCN1CCC(c3noc4ccccc34)CC1)CC2 [Example 164] | 0.097 mL/min/mg protein | – | 7.16 | 48% | 7.93 | 6.00 |
| CC(C)c1ncc2c(=O)n(CCN3CCN(c4nsc5ccccc45)CC3)ccc2n1 [Example 181] | 0.791 mL/min/mg protein | 5.43 | 7.10 | 53% | 7.31 | – |
| O=c1c2cnc(C3CC3)nc2ccn1CCN1CCN(c2nsc3ccccc23)CC1 [Example 182] | 0.726 mL/min/mg protein | 5.85 | 8.11 | 40% | 7.96 | – |
| O=C1c2cn[nH]c2CCN1CCN1CCC(c2noc3ccccc23)CC1 [Example 189, 5-{2-[4-(1,2-Benzoisoxazol-3-yl)piperidin-1-yl]ethyl}-1,5,6,7-tetrahydro-4H-pyrazolo[4,3-c]pyridin-4-one] | <0.05 mL/min/mg protein | – | 6.16 | 49% | 7.01 | 5.74 |

Further lines, with some results ahead:

| Metabolic stability in human hepatic microsome [1] | pKi (human D2 receptor) | pEC50 (human 5-HT1A receptor [2]) | Emax at 10 µM (human 5-HT1A receptor [2]) | pKi (human 5-HT1A receptor [3]) | Compound | pIC50 (hERG channel) |
| --- | --- | --- | --- | --- | --- | --- |
| 0.378 mL/min/mg protein | 6.16 | 8.17 | 68% | 9.12 | COc1cc2c(cn1)CCN(CCN1CCN(c3nsc4ccccc34)CC1)C2=O [Example 19] | 5.28 |
| 0.048 mL/min/mg protein | 6.64 | 7.26 | 58% | 8.22 | O=C1c2ncccc2CCN1CCN1CCN(c2nsc3cc(F)ccc23)CC1 [Example 27] | 5.89 |
| 0.063 mL/min/mg protein | 6.84 | 7.19 | 42% | 9.17 | Cn1ncc2c1CCC(CCN1CCN(c3nsc4ccccc34)CC1)C2=O (centres unmarked) [Example 29] | 5.64 |
| 0.016 mL/min/mg protein | 5.73 | 8.04 | 61% | 9.08 | Cc1nc2c(o1)CCN(CCN1CCC(c3noc4ccccc34)CC1)C2=O [Example 39] | 5.74 |
| 0.100 mL/min/mg protein | 6.92 | 7.63 | 57% | 8.66 | Cn1cc2c(n1)CCCN(CCN1CCN(c3nsc4ccccc34)CC1)C2=O [Example 42] | 5.62 |
| 0.04 mL/min/mg protein | 6.92 | 8.74 | 76% | 9.66 | Cn1ncc2c1CCCN(CCN1CCN(c3nsc4ccccc34)CC1)C2=O [Example 44] | 5.11 |
| 0.038 mL/min/mg protein | 6.08 | 8.29 | 59% | 8.90 | Cn1cc2c(n1)C(=O)N(CCN1CCN(c3nsc4ccccc34)CC1)CC2 [Example 50] | 5.07 |
| 0.074 mL/min/mg protein | 6.00 | 8.68 | 61% | 9.64 | Cc1nc2c(o1)CCN(CCN1CCN(c3nsc4ccccc34)CC1)C2=O [Example 51] | 5.29 |
| 0.161 mL/min/mg protein | 6.16 | 8.37 | 50% | 7.87 | Cn1cnc2c1C(=O)N(CCN1CCN(c3nsc4ccccc34)CC1)CCC2 [Example 55] | < 5.00 |
| 0.269 mL/min/mg protein | – | 8.50 | 65% | 8.93 | O=C1c2oc(C3CC3)nc2CCN1CCN1CCN(c2nsc3ccccc23)CC1 [Example 67] | 5.80 |
